Several values for one entry are separate records, joined by “and”; a condition that tells them apart may be missing. Equal values may be shown once. Read-outs that look alike come from different tables or passages of the source.
Legend:
[1] = In combo PAMPA-BBB model, calculated log Po in situ
[2] = cited from earlier work
PAMPA-BBB Type II = settings: 3 μL lipid-volume coated filters
[3] = Charge class Q, dominant calculated charge state at pH 7.4; format: physicochemical
[4] = in vivo
[5] = PAMPA; for Pm^7.4: pH 7.4
[6] = PAMPA; for Pm^7.4: pH 7.4; remark: listed apart in the source
[7] = In situ brain perfusion, individual literature values; settings: from literature PS
[8] = mouse, in vivo
[9] = mouse, in vivo; cited from earlier work
[10] = pKa determination, potentiometric; settings: this work, 25°C, […] KCl (footnote b)
[11] = for Pm^7.4: pH 7.4
[12] = ref [38], cited from earlier work
physchem [13] = settings: pKa
physchem [14] = experiment: physchem
[15] = difference observed minus calculated, external set, no efflux inhibition
[16] = dominant calculated concentration fraction of the drug in a charge state
[17] = efflux inhibition column: not satbl

## COc1ccc(C(CN(C)C)C2(O)CCCCC2)cc1 (stereo not drawn) [Venlafaxine]
[1]
  obs–calc (log Po^in situ): 0.6
[2]; in vivo
  PS: 104 10^−4 mLg^−1s^−1
  log PS: −1.98
PAMPA-BBB Type II; PAMPA-BBB intrinsic permeability, Type II and I/II
  log Po: −2.17
PAMPA-BBB Type II; aqueous boundary layer permeability, Type II and I/II
  log PABL: −3.22
PAMPA-BBB Type II; membrane permeability at pH 7.4, Type II and I/II
  Pm^7.4: 32
[3]
  Q (charge class): +
[4]
  log Po^in situ (obs): −1.66

## NC(Cc1ccc(F)cc1)C(=O)O (stereo not drawn) [p-F-Phenylalanine]
[5]
  log Po: −6.13
  Pm^7.4: 0.7
[3]
  Q (charge class): ±

## CC(C)(C)c1ccc(C(O)CCCN2CCC(C(O)(c3ccccc3)c3ccccc3)CC2)cc1 (stereo not drawn) [Terfenadine]
[1]; [15]
  obs–calc (log Po^in situ): −0.9
[1]; efflux inhibition CsA
  obs–calc (log Po^in situ): 0.0
[6]
  log PABL: −3.76
  log Po: −0.54
  log Ppara: −5.70
[2]; efflux inhibition CsA
  log PS: −1.39
[7]; efflux inhibition CsA
  log Po^in situ (obs): −0.92
[3]; [16]
  Q (charge class): +

## N[C@H](Cc1ccc(F)cc1)C(=O)O [p-F-Phenylalanine(D)]
[2]; in vivo
  PS: 14 10^−4 mLg^−1s^−1
  log PS: −2.85
[8]
  log Po^in situ (obs): −4.81
[4]
  log Po^in situ (obs): −4.84

## N[C@@H](Cc1ccc(N(CCCl)CCCl)cc1)C(=O)O [Melphalan]
[1]
  obs–calc (log Po^in situ): 0.0
[6]
  log PABL: −4.65
  log Po: −7.51
  log Ppara: −7.71
  Pm^7.4: 0.03
[2]; in vivo
  PS: 5 10^−4 mLg^−1s^−1
  log PS: −3.28
[3]
  Q (charge class): ±
[4]
  log Po^in situ (obs): −5.27

## Oc1ccc2c3c1O[C@H]1c4[nH]c5ccccc5c4C[C@@]4(O)[C@@H](C2)N(CC2CC2)CC[C@]314 [Naltrindole]
[6]
  log Po: −2.23
  log Ppara: −6.20
  Pm^7.4: 659
[9]
  PS: 104 10^−4 mLg^−1s^−1
  log PS: −1.98
[8]
  log Po^in situ (obs): −3.03
[3]
  Q (charge class): +

## CC[C@]1(O)C[C@@H]2CN(CCc3c([nH]c4ccccc34)[C@@](C(=O)OC)(c3cc4c(cc3OC)N(C)[C@H]3[C@@](O)(C(=O)OC)[C@H](OC(C)=O)[C@]5(CC)C=CCN6CC[C@]43[C@@H]65)C2)C1 [Vinblastine]
[1]; efflux inhibition GF120918
  obs–calc (log Po^in situ): 0.2
[1]; efflux inhibition PSC833
  obs–calc (log Po^in situ): 0.1
[1]; efflux inhibition mdr1a(−/−)
  obs–calc (log Po^in situ): 0.2 and 0.4
[6]
  log PABL: −3.25
  log Po: −4.36
  log Ppara: −5.54
  Pm^7.4: 32
[2]; efflux inhibition GF120918
  PS: 6 10^−4 mLg^−1s^−1
  log PS: −3.25
[2]; in vivo
  PS: 4 10^−4 mLg^−1s^−1
  log PS: −3.37
[7]; efflux inhibition GF120918
  log Po^in situ (obs): −4.94
[7]; efflux inhibition PSC833
  log Po^in situ (obs): −5.06
[3]; [16]
  Q (charge class): 0

## O=C(O)CCCc1ccc(N(CCCl)CCCl)cc1 [Chlorambucil]
[1]
  obs–calc (log Po^in situ): 0.3
[6]
  log PABL: −2.87
  log Po: −2.45
  log Ppara: −7.16
  Pm^7.4: 6
[10]; second pKa column
  pKa: 4.28
[10]
  pKa: 4.6
[2]; in vivo
  PS: 250 10^−4 mLg^−1s^−1
  log PS: −1.60
[3]
  Q (charge class): −
[4]
  log Po^in situ (obs): −0.80

## CCC12CCN(CC3(O)CC3)C(Cc3ccc(O)cc31)C2(C)C (stereo not drawn) [Bremazocine]
[1]
  obs–calc (log Po^in situ): 0.4 and 0.2
[11]; PAMPA-BBB intrinsic permeability, Type I, collected under 1.5 μL conditions but scaled to the 3 μL level
  log Po: −2.87
[11]; aqueous boundary layer permeability, Type I, 1.5 μL conditions
  log PABL: −3.00
[2]; in vivo
  PS: 81 10^−4 mLg^−1s^−1
  log PS: −2.09
[9]
  PS: 129 10^−4 mLg^−1s^−1
  log PS: −1.89
[8]
  log Po^in situ (obs): −2.76
[3]
  Q (charge class): +
[4]
  log Po^in situ (obs): −2.96

## CC(C)n1c(/C=C/C(O)CC(O)CC(=O)O)c(-c2ccc(F)cc2)c2ccccc21 (stereo not drawn) [Fluvastatin Acid]
[1]; no efflux inhibition
  obs–calc (log Po^in situ): 0.9
[5]
  log Po: −3.56
  Pm^7.4: 0.2
[3]; [16]
  Q (charge class): −

## CCC(=O)C(CC(C)N(C)C)(c1ccccc1)c1ccccc1 (stereo not drawn) [Methadone]
[5]
  log Po: −2.18

## CNCCC(Oc1ccc(C(F)(F)F)cc1)c1ccccc1 (stereo not drawn) [Fluoxetine]
[10]
  pKa: 9.79

## CCOC(=O)C1(c2ccccc2)CCN(C)CC1 [Meperidine]
[1]
  obs–calc (log Po^in situ): −0.5
[5]
  log Po: −1.68
  Pm^7.4: 1290
[2]; in vivo
  PS: 549 10^−4 mLg^−1s^−1
  log PS: −1.26
[9]
  PS: 525 10^−4 mLg^−1s^−1
  log PS: −1.28
[8]
  log Po^in situ (obs): −2.08
[3]
  Q (charge class): +
[4]
  log Po^in situ (obs): −2.05

## CCCN1C[C@H](C)N([C@H](c2ccc(C(=O)N(CC)CC)cc2)c2cccc(OC)c2)C[C@H]1C [SNC121]
[11]; PAMPA
  log Po: −2.91
  Pm^7.4: 201
[9]
  PS: 363 10^−4 mLg^−1s^−1
  log PS: −1.44
[8]
  log Po^in situ (obs): −2.96
[3]
  Q (charge class): +

## CN(C)C(=O)C(CCN1CCC(O)(c2ccc(Cl)cc2)CC1)(c1ccccc1)c1ccccc1 [Loperamide]
[6]
  log PABL: −3.19
  log Po: −2.67
  log Ppara: −12
  Pm^7.4: 102
[8]
  log Po^in situ (obs): −2.52
[3]
  Q (charge class): +

## N[C@@H](Cc1ccc(F)cc1)C(=O)O [p-F-Phenylalanine(L)]
[9]
  PS: 347 10^−4 mLg^−1s^−1
  log PS: −1.46
[8]
  log Po^in situ (obs): −3.45

## CC(C(=O)O)c1ccc(-c2ccccc2)c(F)c1 (stereo not drawn) [Flurbiprofen]
[1]; [17]
  obs–calc (log Po^in situ): 0.0
[6]
  log PABL: −2.84
  log Po: −2.35
  log Ppara: −6.99
  Pm^7.4: 3
[2]; in vivo
  PS: 158 10^−4 mLg^−1s^−1
  log PS: −1.80
[12]
  pKa: 4.18
[7]; [17]
  log Po^in situ (obs): −0.58
[3]; [16]
  Q (charge class): −

## O=C1C[C@@H](c2ccc(O)cc2)Oc2cc(O)cc(O)c21 [Naringenin]
[1]; efflux inhibition PSC833
  obs–calc (log Po^in situ): 0.0
[6]
  log PABL: −4.00
  log Po: −3.94
  log Ppara: −6.93
  Pm^7.4: 33
Physchem [13]
  pKa: 10.4
[2]; in vivo
  PS: 105 10^−4 mLg^−1s^−1
  log PS: −1.98
[7]; efflux inhibition PSC833
  log Po^in situ (obs): −3.96
[3]; [16]
  Q (charge class): 0

## Cc1cn([C@H]2C[C@H](N=[N+]=[N-])[C@@H](CO)O2)c(=O)[nH]c1=O [Zidovudine]
[11]; PAMPA
  log Po: −6.24
Physchem [13]
  pKa: 9.61
[3]; [16]
  Q (charge class): 0

## CN(Cc1cnc2nc(N)nc(N)c2n1)c1ccc(C(=O)N[C@@H](CCC(=O)O)C(=O)O)cc1 [Methotrexate]
[11]; PAMPA
  log PABL: −4.73
  Pm^7.4: 0.001
Physchem [13]
  pKa: 5.55
[3]; [16]
  Q (charge class): ±

## CC(C)[C@H](NC(=O)[C@H](CCC(=O)O)NC(=O)[C@H](Cc1ccccc1)NC(=O)[C@@H](C)NC(=O)[C@@H](N)Cc1ccc(O)cc1)C(=O)N[C@H](C(=O)NCC(N)=O)C(C)C [Deltorphin II]
[11]; PAMPA
  log Po: −6.51
  Pm^7.4: <0.01
[2]; in vivo
  PS: 0.3 10^−4 mLg^−1s^−1
  log PS: −4.56
[9]
  PS: 0.4 10^−4 mLg^−1s^−1
  log PS: −4.36
[8]
  log Po^in situ (obs): −6.36
[4]
  log Po^in situ (obs): −6.56

## CN1C[C@H](C(=O)N[C@]2(C)O[C@@]3(O)[C@@H]4CCCN4C(=O)[C@H](Cc4ccccc4)N3C2=O)C=C2c3cccc4[nH]cc(c34)C[C@H]21 [Ergotamine]
[1]
  obs–calc (log Po^in situ): 0.1
[6]
  log PABL: −3.73
  log Po: −2.50
  log Ppara: −6.03
  Pm^7.4: 1823
[2]; in vivo
  PS: 87 10^−4 mLg^−1s^−1
  log PS: −2.06
[3]
  Q (charge class): 0
Physchem [14]
  pKa: 9.49
[4]
  log Po^in situ (obs): −3.82

## OCCOCCN1CCN(C(c2ccccc2)c2ccc(Cl)cc2)CC1 (stereo not drawn) [Hydroxyzine]
[1]; efflux inhibition CsA
  obs–calc (log Po^in situ): 0.6
[1]; no efflux inhibition
  obs–calc (log Po^in situ): 0.7
[6]
  log PABL: −3.26
  log Po: −3.72
  log Ppara: −8
  Pm^7.4: 82
[2]; efflux inhibition CsA
  PS: 393 10^−4 mLg^−1s^−1
  log PS: −1.41
[12]
  pKa: 7.52
[12]; second pKa column
  pKa: 2.66
[7]; efflux inhibition CsA
  log Po^in situ (obs): −3.04
[3]; [16]
  Q (charge class): 0

## CC(C)c1nc(CN(C)C(=O)N[C@H](C(=O)N[C@@H](Cc2ccccc2)C[C@H](O)[C@H](Cc2ccccc2)NC(=O)OCc2cncs2)C(C)C)cs1 [Ritonavir]
[1]; [15]
  obs–calc (log Po^in situ): −0.7 and −0.6
[1]; efflux inhibition mdr1a(−/−)
  obs–calc (log Po^in situ): 0.0 and 0.2
[11]; PAMPA
  log Po: −4.24
  Pm^7.4: 57
Physchem [13]
  pKa: 2.42
[3]; [16]
  Q (charge class): 0

From article PMC3034772 (Pharmaceutical research, 2010)
